The supplement of paper PMC10307832

Tests used:
Assay in all cases: relative viability (nuclei count vs DMSO), 5 days (fraction); higher = more cells survive
EKVX = system: EKVX
Method in brief: (§1)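 Relative viability was taken as the ratio of nuclei in treated wells to nuclei in vehicle wells. Lung cancer cell lines in 1536-well plates received compounds by pin tool one day after seeding, either one drug alone or a fixed anchor-drug dose plus five library-drug doses (not always all listed) in √10 steps. Nuclei were counted on 4× images after 5 days of treatment, and values are medians of duplicate plates.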

HARA = system: HARA
Method in brief: as §1

NCI-H647 = system: NCI-H647
Method in brief: as §1

NCI-H1792 = system: NCI-H1792
Method in brief: as §1

NCI-H522 = system: NCI-H522
Method in brief: as §1

NCI-H2405 = system: NCI-H2405
Method in brief: as §1

NCI-H358 = system: NCI-H358
Method in brief: as §1

A-427 = system: A-427
Method in brief: as §1

NCI-H1755 = system: NCI-H1755
Method in brief: as §1

NCI-H1650 = system: NCI-H1650
Method in brief: as §1

LU99A = system: LU99A
Method in brief: as §1

HCC-44 = system: HCC-44
Method in brief: as §1

LK-2 = system: LK-2
Method in brief: as §1

NCI-H460 = system: NCI-H460
Method in brief: as §1

NCI-H1993 = system: NCI-H1993
Method in brief: as §1

RERF-LC-KJ = system: RERF-LC-KJ
Method in brief: as §1

NCI-H1734 = system: NCI-H1734
Method in brief: as §1

COR-L 105 = system: COR-L 105
Method in brief: as §1

SW 900 = system: SW 900
Method in brief: as §1

EPLC-272H = system: EPLC-272H
Method in brief: as §1

EMC-BAC-2 = system: EMC-BAC-2
Method in brief: as §1

ChaGo-K-1 = system: ChaGo-K-1
Method in brief: as §1

NCI-H596 = system: NCI-H596
Method in brief: as §1

## CCNC(=O)c1noc(-c2cc(C(C)C)c(O)cc2O)c1-c1ccc(CN2CCOCC2)cc1 [Luminespib] + O=C(c1cc(Cc2n[nH]c(=O)c3ccccc23)ccc1F)N1CCN(C(=O)C2CC2)CC1 [Olaparib] (partner 8 µM)
EKVX; first compound 0.002 µM
  relative viability: 0.881
EKVX; first compound 0.006325 µM
  relative viability: 0.881
EKVX; first compound 0.02 µM
  relative viability: 0.651
EKVX; first compound 0.06325 µM
  relative viability: 0.541
EKVX; first compound 0.2 µM
  relative viability: 0.155
HARA; first compound 0.002 µM
  relative viability: 0.425
HARA; first compound 0.006325 µM
  relative viability: 0.814
HARA; first compound 0.02 µM
  relative viability: 0.997
HARA; first compound 0.06325 µM
  relative viability: 0.146
HARA; first compound 0.2 µM
  relative viability: 0.102
NCI-H647; first compound 0.002 µM
  relative viability: 0.536
NCI-H647; first compound 0.006325 µM
  relative viability: 0.577
NCI-H647; first compound 0.02 µM
  relative viability: 0.273
NCI-H647; first compound 0.06325 µM
  relative viability: 0.0706
NCI-H647; first compound 0.2 µM
  relative viability: 0.059
NCI-H1792; first compound 0.002 µM
  relative viability: 0.4
NCI-H1792; first compound 0.006325 µM
  relative viability: 0.298
NCI-H1792; first compound 0.02 µM
  relative viability: 0.271
NCI-H1792; first compound 0.06325 µM
  relative viability: 0.0723
NCI-H1792; first compound 0.2 µM
  relative viability: 0.0503
NCI-H522; first compound 0.002 µM
  relative viability: 0.757
NCI-H522; first compound 0.006325 µM
  relative viability: 0.61
NCI-H522; first compound 0.02 µM
  relative viability: 0.624
NCI-H522; first compound 0.06325 µM
  relative viability: 0.437
NCI-H522; first compound 0.2 µM
  relative viability: 0.4
NCI-H2405; first compound 0.002 µM
  relative viability: 0.948
NCI-H2405; first compound 0.02 µM
  relative viability: 0.813
NCI-H2405; first compound 0.06325 µM
  relative viability: 0.181
NCI-H2405; first compound 0.2 µM
  relative viability: 0.182
NCI-H358; first compound 0.002 µM
  relative viability: 0.637
NCI-H358; first compound 0.006325 µM
  relative viability: 0.655
NCI-H358; first compound 0.02 µM
  relative viability: 0.577
NCI-H358; first compound 0.06325 µM
  relative viability: 0.0817
NCI-H358; first compound 0.2 µM
  relative viability: 0.0712
A-427; first compound 0.002 µM
  relative viability: 0.782
A-427; first compound 0.006325 µM
  relative viability: 0.732
A-427; first compound 0.02 µM
  relative viability: 0.716
A-427; first compound 0.06325 µM
  relative viability: 0.445
A-427; first compound 0.2 µM
  relative viability: 0.251
NCI-H1755; first compound 0.002 µM
  relative viability: 0.917
NCI-H1755; first compound 0.006325 µM
  relative viability: 0.808
NCI-H1755; first compound 0.02 µM
  relative viability: 0.759
NCI-H1755; first compound 0.06325 µM
  relative viability: 0.817
NCI-H1755; first compound 0.2 µM
  relative viability: 0.794
NCI-H1650; first compound 0.002 µM
  relative viability: 0.852
NCI-H1650; first compound 0.006325 µM
  relative viability: 0.786
NCI-H1650; first compound 0.02 µM
  relative viability: 0.686
NCI-H1650; first compound 0.06325 µM
  relative viability: 0.142
NCI-H1650; first compound 0.2 µM
  relative viability: 0.137
LU99A; first compound 0.002 µM
  relative viability: 0.294
LU99A; first compound 0.006325 µM
  relative viability: 0.236
LU99A; first compound 0.02 µM
  relative viability: 0.226
LU99A; first compound 0.06325 µM
  relative viability: 0.174
LU99A; first compound 0.2 µM
  relative viability: 0.138
HCC-44; first compound 0.002 µM
  relative viability: 0.981
HCC-44; first compound 0.006325 µM
  relative viability: 0.952
HCC-44; first compound 0.02 µM
  relative viability: 1.07
HCC-44; first compound 0.06325 µM
  relative viability: 0.944
HCC-44; first compound 0.2 µM
  relative viability: 0.52
LK-2; first compound 0.002 µM
  relative viability: 0.884
LK-2; first compound 0.006325 µM
  relative viability: 0.89
LK-2; first compound 0.02 µM
  relative viability: 0.519
LK-2; first compound 0.06325 µM
  relative viability: 0.11
LK-2; first compound 0.2 µM
  relative viability: 0.114
NCI-H460; first compound 0.002 µM
  relative viability: 0.514
NCI-H460; first compound 0.006325 µM
  relative viability: 0.37
NCI-H460; first compound 0.02 µM
  relative viability: 0.454
NCI-H460; first compound 0.06325 µM
  relative viability: 0.0514
NCI-H460; first compound 0.2 µM
  relative viability: 0.0343
NCI-H1993; first compound 0.002 µM
  relative viability: 1.09
NCI-H1993; first compound 0.006325 µM
  relative viability: 0.953
NCI-H1993; first compound 0.02 µM
  relative viability: 0.617
NCI-H1993; first compound 0.06325 µM
  relative viability: 0.903
NCI-H1993; first compound 0.2 µM
  relative viability: 0.39
RERF-LC-KJ; first compound 0.002 µM
  relative viability: 0.857
RERF-LC-KJ; first compound 0.006325 µM
  relative viability: 0.934
RERF-LC-KJ; first compound 0.02 µM
  relative viability: 0.49
RERF-LC-KJ; first compound 0.06325 µM
  relative viability: 0.235
RERF-LC-KJ; first compound 0.2 µM
  relative viability: 0.212
NCI-H1734; first compound 0.002 µM
  relative viability: 0.646
NCI-H1734; first compound 0.006325 µM
  relative viability: 0.595
NCI-H1734; first compound 0.02 µM
  relative viability: 0.476
NCI-H1734; first compound 0.06325 µM
  relative viability: 0.152
NCI-H1734; first compound 0.2 µM
  relative viability: 0.13
COR-L 105; first compound 0.002 µM
  relative viability: 0.737
COR-L 105; first compound 0.006325 µM
  relative viability: 0.647
COR-L 105; first compound 0.02 µM
  relative viability: 0.646
COR-L 105; first compound 0.06325 µM
  relative viability: 0.256
COR-L 105; first compound 0.2 µM
  relative viability: 0.295
SW 900; first compound 0.002 µM
  relative viability: 0.688
SW 900; first compound 0.006325 µM
  relative viability: 0.81
SW 900; first compound 0.02 µM
  relative viability: 0.818
SW 900; first compound 0.06325 µM
  relative viability: 0.163
SW 900; first compound 0.2 µM
  relative viability: 0.152
EPLC-272H; first compound 0.002 µM
  relative viability: 0.812
EPLC-272H; first compound 0.006325 µM
  relative viability: 0.702
EPLC-272H; first compound 0.02 µM
  relative viability: 0.709
EPLC-272H; first compound 0.06325 µM
  relative viability: 0.0637
EPLC-272H; first compound 0.2 µM
  relative viability: 0.082
EMC-BAC-2; first compound 0.002 µM
  relative viability: 0.489
EMC-BAC-2; first compound 0.006325 µM
  relative viability: 0.482
EMC-BAC-2; first compound 0.02 µM
  relative viability: 0.471
EMC-BAC-2; first compound 0.06325 µM
  relative viability: 0.234
EMC-BAC-2; first compound 0.2 µM
  relative viability: 0.242
ChaGo-K-1; first compound 0.002 µM
  relative viability: 0.42
ChaGo-K-1; first compound 0.006325 µM
  relative viability: 0.407
ChaGo-K-1; first compound 0.02 µM
  relative viability: 0.439
ChaGo-K-1; first compound 0.06325 µM
  relative viability: 0.452
ChaGo-K-1; first compound 0.2 µM
  relative viability: 0.36
NCI-H596; first compound 0.002 µM
  relative viability: 0.752
NCI-H596; first compound 0.006325 µM
  relative viability: 0.695
NCI-H596; first compound 0.02 µM
  relative viability: 0.749
NCI-H596; first compound 0.06325 µM
  relative viability: 0.617
NCI-H596; first compound 0.2 µM
  relative viability: 0.602
